In ChEMBL document CHEMBL3045827, “High osmolar contrast medium causes mild oxidation in liver, bladder, and ovary tissues from rats: vitamin C has protective role” (2010) one finds Activity data, which are given here for one compound.

Experiment [1] has as its system Rattus norvegicus. Put plainly: Inhibition of ionic high-osmolar contrast medium-induced oxidative stress in Rattus norvegicus Wistar albino (rat) liver assessed as NO level at 250 mg/kg/day administered through drinking water measured on 6th day by Griess reaction method (reference value: 1.082 +/- 0.359%). It is filed as functional. Details: scale not given: the % may be the effect or the level left.

In experiment [2] the test system is Rattus norvegicus. Put plainly: Inhibition of ionic high-osmolar contrast medium-induced oxidative stress in Rattus norvegicus Wistar albino (rat) liver assessed as GSH-Px activity at 250 mg/kg/day administered through drinking water measured on 6th day (reference value: 0.056 +/- 0.019 IU). It is filed as functional.
The subject of experiment [3] is Rattus norvegicus. The experiment is described as follows: Inhibition of ionic high-osmolar contrast medium-induced oxidative stress in Rattus norvegicus Wistar albino (rat) liver assessed as MDA level at 250 mg/kg/day administered through drinking water measured on 6th day by TBARS method (reference value: 0.579 +/- 0.129 %). It is filed as functional. Details: scale not given: the % may be the effect or the level left.

Experiment [4] concerns Rattus norvegicus. Put plainly: Inhibition of ionic high-osmolar contrast medium-induced oxidative stress in Rattus norvegicus Wistar albino (rat) ovary assessed as MDA level at 250 mg/kg/day administered through drinking water measured on 6th day by TBARS method (reference value: 0.986 +/- 0.323 %). Details: scale not given: the % may be the effect or the level left. The experiment is classed as functional, Female gonad.

Experiment [5] concerns Rattus norvegicus. The experiment is described as follows: Inhibition of ionic high-osmolar contrast medium-induced oxidative stress in Rattus norvegicus Wistar albino (rat) liver assessed as SOD activity at 250 mg/kg/day administered through drinking water measured on 6th day by NBT reduction method (reference value: 146.4 +/- 25.89 U/mg). The experiment is classed as functional.

In experiment [6] the test system is Rattus norvegicus. The experiment is described as follows: Inhibition of ionic high-osmolar contrast medium-induced oxidative stress in Rattus norvegicus Wistar albino (rat) liver assessed as catalase activity at 250 mg/kg/day administered through drinking water measured on 6th day (reference value: 119.8 +/- 13.43 IU). It is filed as functional.
Experiment [7] deals with Rattus norvegicus. Put plainly: Inhibition of ionic high-osmolar contrast medium-induced oxidative stress in Rattus norvegicus Wistar albino (rat) bladder assessed as MDA level at 250 mg/kg/day administered through drinking water measured on 6th day by TBARS method (reference value: 1.180 +/- 0.803 %). Details: scale not given: the % may be the effect or the level left. It is filed as functional.

Experiment [8] deals with Rattus norvegicus. The experiment is described as follows: Inhibition of ionic high-osmolar contrast medium-induced oxidative stress in Rattus norvegicus Wistar albino (rat) liver assessed as NOS activity at 250 mg/kg/day administered through drinking water measured on 6th day (reference value: 0.208 +/- 0.031 mIU/ml). The experiment is classed as functional.

In the case of `O=C1O[C@H]([C@@H](O)CO)C(O)=C1O` [ASCORBIC ACID], the Activity with Rattus norvegicus [1] came to 0.965%; with Rattus norvegicus [2], 0.05 IU; with Rattus norvegicus [3] it was 0.49%; in the experiment with Rattus norvegicus [4], 0.762%; in the experiment on Rattus norvegicus [5] it was 193.2 U/mg; with Rattus norvegicus [6], 118.9 IU. Besides, the Activity in the experiment with Rattus norvegicus [7] is recorded as 0.821%; with Rattus norvegicus [8], 0.224 mIU/ml.
